Here are results for 50 compounds from patent EP1247803A2, “Indolinone compounds suitable for modulation of protein kinases” (Sugen, Inc., priority 1996, dated 1998).

One test addresses T1, EGFR (Homo sapiens, UniProt P00533).
T1 construct: Add 7 ug A431 cell lysate per well (EGFR source); endogenous in cells; host or cells: A431
The test can be described thus: EGFR ELISA assay (in vitro kinase activity, EGFR captured from A431 cell lysate). The test is classed as biochemical. Also noted: concentration or dose not given beside the values. In a few lines: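 EGFR from A431 lysate was captured on anti-EGFR antibody-coated plates and preincubated with compounds for 30 min. Autophosphorylation ran 5 min with 3 uM ATP and 5 mM MnCl2 (final), stopped with 20 mM EDTA. Phosphotyrosine was detected by anti-pTyr ELISA with ABTS/H2O2, read at 410 nm.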
For orientation: ELISA stands for enzyme-linked immunosorbent assay.

For a further test, the target named is PDGF-R (Homo sapiens, UniProt P09619). The test can be described thus: PDGF-R ELISA. The class given is cell-based. An excerpt:
A PDGF-R ELISA is described in International Patent Publication No. WO 96/40116, published December 19, 1996 by Tang et al.

T1 sequence (P00533 25-1210): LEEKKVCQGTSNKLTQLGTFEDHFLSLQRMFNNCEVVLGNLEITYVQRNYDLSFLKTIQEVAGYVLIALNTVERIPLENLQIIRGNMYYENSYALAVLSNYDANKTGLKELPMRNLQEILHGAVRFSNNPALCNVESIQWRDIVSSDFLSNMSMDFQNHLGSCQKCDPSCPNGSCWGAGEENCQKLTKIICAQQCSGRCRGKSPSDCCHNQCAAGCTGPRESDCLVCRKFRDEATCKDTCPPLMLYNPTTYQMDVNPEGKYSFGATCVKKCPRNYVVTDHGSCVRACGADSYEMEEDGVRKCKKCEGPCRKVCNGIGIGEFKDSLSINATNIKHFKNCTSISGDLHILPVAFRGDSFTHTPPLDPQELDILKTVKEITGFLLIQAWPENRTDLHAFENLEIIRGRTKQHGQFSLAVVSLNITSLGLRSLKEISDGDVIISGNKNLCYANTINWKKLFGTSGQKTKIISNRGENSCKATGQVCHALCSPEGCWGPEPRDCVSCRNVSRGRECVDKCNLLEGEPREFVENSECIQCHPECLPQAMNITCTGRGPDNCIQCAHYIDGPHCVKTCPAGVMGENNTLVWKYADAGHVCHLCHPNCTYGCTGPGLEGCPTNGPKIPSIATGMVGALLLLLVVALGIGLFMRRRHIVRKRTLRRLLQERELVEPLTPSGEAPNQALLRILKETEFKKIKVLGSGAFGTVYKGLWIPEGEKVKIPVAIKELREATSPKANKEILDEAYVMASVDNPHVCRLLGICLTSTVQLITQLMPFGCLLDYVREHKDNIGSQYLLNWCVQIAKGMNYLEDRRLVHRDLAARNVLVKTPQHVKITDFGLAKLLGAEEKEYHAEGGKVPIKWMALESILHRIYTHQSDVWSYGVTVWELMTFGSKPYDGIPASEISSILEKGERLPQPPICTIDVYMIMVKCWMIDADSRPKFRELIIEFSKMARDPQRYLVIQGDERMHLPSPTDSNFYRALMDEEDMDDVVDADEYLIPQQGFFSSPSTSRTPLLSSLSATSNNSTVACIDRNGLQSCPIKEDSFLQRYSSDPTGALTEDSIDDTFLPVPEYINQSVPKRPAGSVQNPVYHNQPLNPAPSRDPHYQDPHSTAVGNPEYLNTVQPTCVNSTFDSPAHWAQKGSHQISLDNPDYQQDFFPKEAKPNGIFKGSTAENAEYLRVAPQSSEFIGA
Sequence of PDGF-R (P09619 33-1106, species assumed): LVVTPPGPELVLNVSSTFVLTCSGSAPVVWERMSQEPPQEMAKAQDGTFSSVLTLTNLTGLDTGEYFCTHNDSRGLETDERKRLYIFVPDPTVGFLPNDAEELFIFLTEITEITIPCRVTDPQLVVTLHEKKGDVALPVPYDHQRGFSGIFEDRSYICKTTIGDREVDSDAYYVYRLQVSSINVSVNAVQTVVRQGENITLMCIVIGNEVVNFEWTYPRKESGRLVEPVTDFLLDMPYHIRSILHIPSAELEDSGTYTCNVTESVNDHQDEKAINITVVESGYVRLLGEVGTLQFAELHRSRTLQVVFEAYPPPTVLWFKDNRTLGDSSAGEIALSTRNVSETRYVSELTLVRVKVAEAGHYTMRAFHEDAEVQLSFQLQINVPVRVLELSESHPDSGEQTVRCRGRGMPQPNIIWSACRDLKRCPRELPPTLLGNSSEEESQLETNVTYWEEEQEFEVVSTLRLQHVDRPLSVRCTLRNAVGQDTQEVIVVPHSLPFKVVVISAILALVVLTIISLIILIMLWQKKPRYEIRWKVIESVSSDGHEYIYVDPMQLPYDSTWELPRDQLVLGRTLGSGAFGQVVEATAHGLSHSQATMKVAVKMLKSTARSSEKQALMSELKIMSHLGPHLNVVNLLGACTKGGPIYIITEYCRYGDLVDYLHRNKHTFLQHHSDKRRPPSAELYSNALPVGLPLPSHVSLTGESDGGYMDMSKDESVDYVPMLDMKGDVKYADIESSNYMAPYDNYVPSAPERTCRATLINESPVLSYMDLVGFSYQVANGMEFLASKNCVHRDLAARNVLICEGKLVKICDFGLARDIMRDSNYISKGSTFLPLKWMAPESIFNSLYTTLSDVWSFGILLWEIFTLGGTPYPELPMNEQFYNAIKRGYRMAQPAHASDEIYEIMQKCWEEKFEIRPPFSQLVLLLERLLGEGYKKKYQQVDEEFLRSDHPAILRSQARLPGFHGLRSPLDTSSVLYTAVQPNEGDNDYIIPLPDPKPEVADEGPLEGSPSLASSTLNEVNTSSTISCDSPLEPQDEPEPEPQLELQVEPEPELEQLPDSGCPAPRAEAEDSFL

Regarding `Cc1[nH]c(C=C2C(=O)Nc3c(Br)cc(Br)cc32)c(Br)c1Br` [10717/A11], the “Biochem EGFR %Inhibition” value at EGFR is 59.9%.
As for `O=C1Nc2ccc(S(=O)(=O)Nc3ccc(C(F)(F)F)cc3)cc2C1=Cc1ccc2ccccc2c1O` [10718/E04], the “Biochem EGFR %Inhibition” value at EGFR is 16.4%.
For `CCOC(=O)CCc1c(C(=O)OCC)[nH]c(C=C2C(=O)Nc3ccc(S(=O)(=O)Nc4ccc(C(F)(F)F)cc4)cc32)c1CC(=O)OCC` [10718/E05], at EGFR, the “Biochem EGFR %Inhibition” value is -3.1%.
Still for that read-out and setting: under `CCOC(=O)c1cc(C=C2C(=O)Nc3ccc(S(=O)(=O)Nc4ccc(C(F)(F)F)cc4)cc32)oc1C` [10718/E06] stands 2.0%; under `COC(=O)c1[nH]c(C)c(C=C2C(=O)Nc3ccc(S(=O)(=O)Nc4ccc(C(F)(F)F)cc4)cc32)c1C(=O)OC` [10718/E07], 13.9%.
Still for that read-out and setting: in the case of `O=C1Nc2ccc(S(=O)(=O)Nc3ccc(C(F)(F)F)cc3)cc2C1=Cc1ccc(Cl)c([N+](=O)[O-])c1` [10718/E08] it was 9.3%; in that of `Cc1c(O)ccc(C=C2C(=O)Nc3ccc(S(=O)(=O)Nc4ccc(C(F)(F)F)cc4)cc32)c1O` [10718/E09], 17.0%; in that of `O=C1Nc2ccc(S(=O)(=O)Nc3ccc(C(F)(F)F)cc3)cc2C1=Cc1ccco1` [10718/E10], -7.5%.
On to `O=C1Nc2ccc(S(=O)(=O)Nc3ccc(C(F)(F)F)cc3)cc2C1=Cc1ccc([N+](=O)[O-])o1` [10718/E11], for which, at EGFR, the “Biochem EGFR %Inhibition” value was -15.2%.
Take `COc1c([N+](=O)[O-])cc(C=C2C(=O)Nc3ccc(S(=O)(=O)Nc4ccc(C(F)(F)F)cc4)cc32)cc1C(C)(C)C` [10733/E03]: on PDGF-R, the “PDGF Kinase %Inhibition” value stood at 43.1%. Moreover, the “Biochem EGFR %Inhibition” value at EGFR amounted to 10.7%.
On the same counts, the results for `COc1c(C(C)(C)C)cc(C=C2C(=O)Nc3ccc(S(=O)(=O)Nc4ccc(C(F)(F)F)cc4)cc32)cc1C(C)(C)C` [10733/E04] are -13.7% and 45.4%.
Consider `CC(C)(C)c1cc(C=C2C(=O)Nc3ccc(S(=O)(=O)Nc4ccc(C(F)(F)F)cc4)cc32)cc(C(C)(C)C)c1OCc1ccccc1` [10733/E05], for which the “PDGF Kinase %Inhibition” value on PDGF-R is on record as -33.2%. In addition, at EGFR, the “Biochem EGFR %Inhibition” value was found to be 58.3%.
Taken in the same sequence, the figures for `COc1c(C)cc(C=C2C(=O)Nc3ccc(S(=O)(=O)Nc4ccc(C(F)(F)F)cc4)cc32)cc1C` [10733/E06] were 22.4% and 37.3%.
As to `Cc1cc(C=C2C(=O)Nc3ccc(S(=O)(=O)Nc4ccc(C(F)(F)F)cc4)cc32)cc(C)c1OCc1ccccc1` [10733/E07], the “PDGF Kinase %Inhibition” value on PDGF-R is on record as 29.3%. The “Biochem EGFR %Inhibition” value on EGFR came to 19.9%.
Regarding `COc1cc(Br)cc(C=C2C(=O)Nc3ccc(S(=O)(=O)Nc4ccc(C(F)(F)F)cc4)cc32)c1O` [10733/E08], on PDGF-R, the “PDGF Kinase %Inhibition” value was determined as 75.2%. Moreover, the “Biochem EGFR %Inhibition” value at EGFR came out at 54.2%.
On the same counts, the results for `O=C1Nc2ccc(S(=O)(=O)Nc3ccc(C(F)(F)F)cc3)cc2C1=Cc1cc(Br)ccc1O` [10733/E09] are 35.8% and 72.4%.
Taken in the same sequence, the figures for `O=C1Nc2ccc(S(=O)(=O)Nc3ccc(C(F)(F)F)cc3)cc2C1=Cc1cc([N+](=O)[O-])ccc1O` [10733/E10] were 10.3% and 31.3%.
On the same counts, the results for `COc1c(O)ccc(C=C2C(=O)Nc3ccc(S(=O)(=O)Nc4ccc(C(F)(F)F)cc4)cc32)c1[N+](=O)[O-]` [10733/E11] are 15.9% and 31.6%.
As for `CC(C)(C)c1cc(C=C2C(=O)Nc3ccc(S(=O)(=O)N4CCOCC4)cc32)cc(I)c1OCc1ccccc1` [10733/F02], the “PDGF Kinase %Inhibition” value on PDGF-R came out at 3.8%. In addition, on EGFR, the “Biochem EGFR %Inhibition” value came out at 11.3%.
`COc1c([N+](=O)[O-])cc(C=C2C(=O)Nc3ccc(S(=O)(=O)N4CCOCC4)cc32)cc1C(C)(C)C` [10733/F03]: the “PDGF Kinase %Inhibition” value at PDGF-R was found to be 24.5%. The “Biochem EGFR %Inhibition” value on EGFR is on record as -3.6%.
On the same counts, the results for `COc1c(C(C)(C)C)cc(C=C2C(=O)Nc3ccc(S(=O)(=O)N4CCOCC4)cc32)cc1C(C)(C)C` [10733/F04] are -28.7% and 76.3%.
On the same counts, the results for `CC(C)(C)c1cc(C=C2C(=O)Nc3ccc(S(=O)(=O)N4CCOCC4)cc32)cc(C(C)(C)C)c1OCc1ccccc1` [10733/F05] are -25.1% and 84.6%.
Regarding `COc1c(C)cc(C=C2C(=O)Nc3ccc(S(=O)(=O)N4CCOCC4)cc32)cc1C` [10733/F06], the “PDGF Kinase %Inhibition” value on PDGF-R is listed as -4.8%. For the same compound, on EGFR, the “Biochem EGFR %Inhibition” value is reported as 17.8%.
In the case of `Cc1cc(C=C2C(=O)Nc3ccc(S(=O)(=O)N4CCOCC4)cc32)cc(C)c1OCc1ccccc1` [10733/F07], on PDGF-R, the “PDGF Kinase %Inhibition” value stood at 1.7%. Also, the “Biochem EGFR %Inhibition” value at EGFR is recorded as 19.2%.
`COc1cc(Br)cc(C=C2C(=O)Nc3ccc(S(=O)(=O)N4CCOCC4)cc32)c1O` [10733/F08]: the “PDGF Kinase %Inhibition” value on PDGF-R is -32.4%. Also, the “Biochem EGFR %Inhibition” value at EGFR is recorded as 17.2%.
As to `O=C1Nc2ccc(S(=O)(=O)N3CCOCC3)cc2C1=Cc1cc(Br)ccc1O` [10733/F09], the “PDGF Kinase %Inhibition” value at PDGF-R is reported as -0.3%. The “Biochem EGFR %Inhibition” value at EGFR came out at 30.1%.
`O=C1Nc2ccc(S(=O)(=O)N3CCOCC3)cc2C1=Cc1cc([N+](=O)[O-])ccc1O` [10733/F10]: the “PDGF Kinase %Inhibition” value on PDGF-R is recorded as -5.6%. Besides, the “Biochem EGFR %Inhibition” value on EGFR is 21.9%.
On the same counts, the results for `COc1c(O)ccc(C=C2C(=O)Nc3ccc(S(=O)(=O)N4CCOCC4)cc32)c1[N+](=O)[O-]` [10733/F11] are -17.8% and 0.6%.
Taken in the same sequence, the figures for `CC(C)(C)c1cc(C=C2C(=O)Nc3ccc(CCCl)cc32)cc(I)c1OCc1ccccc1` [10733/G02] were -7.6% and -6.2%.
Regarding `COc1c([N+](=O)[O-])cc(C=C2C(=O)Nc3ccc(CCCl)cc32)cc1C(C)(C)C` [10733/G03], the “PDGF Kinase %Inhibition” value on PDGF-R was 12.7%. In addition, the “Biochem EGFR %Inhibition” value on EGFR is 0.7%.
As to `COc1c(C(C)(C)C)cc(C=C2C(=O)Nc3ccc(CCCl)cc32)cc1C(C)(C)C` [10733/G04], the “PDGF Kinase %Inhibition” value at PDGF-R amounted to 11.9%. Also, at EGFR, the “Biochem EGFR %Inhibition” value worked out at 10.6%.
As for `CC(C)(C)c1cc(C=C2C(=O)Nc3ccc(CCCl)cc32)cc(C(C)(C)C)c1OCc1ccccc1` [10733/G05], on PDGF-R, the “PDGF Kinase %Inhibition” value is given as -1.1%. At EGFR, the “Biochem EGFR %Inhibition” value is 1.5%.
Taken in the same sequence, the figures for `COc1c(C)cc(C=C2C(=O)Nc3ccc(CCCl)cc32)cc1C` [10733/G06] were 0.1% and 5.2%.
On the same counts, the results for `Cc1cc(C=C2C(=O)Nc3ccc(CCCl)cc32)cc(C)c1OCc1ccccc1` [10733/G07] are -6.8% and 18.1%.
On the same counts, the results for `COc1cc(Br)cc(C=C2C(=O)Nc3ccc(CCCl)cc32)c1O` [10733/G08] are 68.7% and 44.2%.
Regarding `O=C1Nc2ccc(CCCl)cc2C1=Cc1cc(Br)ccc1O` [10733/G09], the “PDGF Kinase %Inhibition” value at PDGF-R is on record as -17.0%. For the same compound, the “Biochem EGFR %Inhibition” value on EGFR is given as 38.7%.
On the same counts, the results for `O=C1Nc2ccc(CCCl)cc2C1=Cc1cc([N+](=O)[O-])ccc1O` [10733/G10] are -58.0% and 18.2%.
On the same counts, the results for `COc1c(O)ccc(C=C2C(=O)Nc3ccc(CCCl)cc32)c1[N+](=O)[O-]` [10733/G11] are -4.4% and -1.0%.
On the same counts, the results for `CCOc1cccc(C=C2C(=O)Nc3c(Br)cc(Br)cc32)c1O` [10734/A02] are -3.8% and 0.0%.
For `O=C1Nc2c(Br)cc(Br)cc2C1=Cc1cc(Cl)cc(Cl)c1O` [10734/A03], the “PDGF Kinase %Inhibition” value on PDGF-R is 22.3%. Moreover, at EGFR, the “Biochem EGFR %Inhibition” value stood at 18.5%.
In the case of `O=C1Nc2c(Br)cc(Br)cc2C1=Cc1cc(Cl)ccc1O` [10734/A04], the “PDGF Kinase %Inhibition” value on PDGF-R is listed as 11.7%. Besides, on EGFR, the “Biochem EGFR %Inhibition” value worked out at 11.4%.
Regarding `CCN(CC)c1ccc(C=C2C(=O)Nc3c(Br)cc(Br)cc32)c(O)c1` [10734/A05], the “PDGF Kinase %Inhibition” value at PDGF-R turned out to be 2.9%. The “Biochem EGFR %Inhibition” value on EGFR came out at 22.6%.
Take `O=C1Nc2c(Br)cc(Br)cc2C1=Cc1ccc([N+](=O)[O-])cc1` [10734/A06]: the “PDGF Kinase %Inhibition” value on PDGF-R is reported as -9.9%. At EGFR, the “Biochem EGFR %Inhibition” value is recorded as -6.4%.
Taken in the same sequence, the figures for `O=C1Nc2c(Br)cc(Br)cc2C1=Cc1cc(Br)cc(Br)c1O` [10734/A07] were 21.9% and 15.2%.
Taken in the same sequence, the figures for `O=C1Nc2c(Br)cc(Br)cc2C1=Cc1cccc(F)c1O` [10734/A08] were 9.1% and 6.8%.
Taken in the same sequence, the figures for `O=C1Nc2c(Br)cc(Br)cc2C1=Cc1ccc(O)c(Br)c1` [10734/A09] were -9.5% and 27.3%.
As for `CC(C)(C)c1ccc(C=C2C(=O)Nc3c(Br)cc(Br)cc32)cc1` [10734/A10], the “PDGF Kinase %Inhibition” value on PDGF-R worked out at 26.3%. The “Biochem EGFR %Inhibition” value at EGFR came to 27.8%.
On to `O=C1Nc2c(Br)cc(Br)cc2C1=Cc1ccc(Br)s1` [10734/A11], for which, on PDGF-R, the “PDGF Kinase %Inhibition” value worked out at 5.5%. For the same compound, the “Biochem EGFR %Inhibition” value on EGFR is given as 12.5%.
Taken in the same sequence, the figures for `CCOc1cccc(C=C2C(=O)Nc3ccc(I)cc32)c1O` [10734/B02] were -2.9% and -8.9%.
Taken in the same sequence, the figures for `O=C1Nc2ccc(I)cc2C1=Cc1cc(Cl)cc(Cl)c1O` [10734/B03] were 13.0% and 45.1%.
